This data set in a line: DSC determination of the crystallization peak of coenzyme Q10 (effect of preventing crystallization). In kind it is physicochemical. The conditions noted are these: held at 80° C. 10 minutes, cooled to −50° C. at −5° C./min. As for the experimental part: The component materials shown in Table 1 were warmed and dissolved at 60° C., and weighed out the appropriate amount on a measuring aluminum pan to make samples for DSC determination.
Using the samples obtained in Reference Examples 1 to 10, the effect of preventing coenzyme Q10 crystallization derived from a lipophilic sucrose fatty acid ester was determined by DSC (differential scanning calorimetry).
Detector: DSC6220 (manufactured by SII Nano Technology Inc.)
Determination condition: the crystallization peak (exothermic peak) of coenzyme Q10 was determined after retaining the samples at 80° C. for 10 minutes and then cooling them to −50° C. at a cooling rate of −5° C./rain.

In turn, `COC1=C(OC)C(=O)C(C/C=C(\C)CC/C=C(\C)CC/C=C(\C)CC/C=C(\C)CC/C=C(\C)CC/C=C(\C)CC/C=C(\C)CC/C=C(\C)CC/C=C(\C)CCC=C(C)C)=C(C)C1=O` [compound 4, Coenzyme Q10] had a DSC exothermic peak of −11.4 °C.
